For assay [1], the system named is TNFα production in LPS-stimulated human monocytes. Put plainly: Cot Monocyte TNFα Cell Based Assay. The note with it: Homo sapiens, Monocyte, TNFα in LPS-stimulated human monocytes; read-out: EC50 TNF. An outline of the steps:
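TNFα release quantified by two-antibody TR-FRET, normalised to unstimulated (0%) and LPS-stimulated (100%) wells. Cells got a 1 h compound exposure at 37° C in 0.5% DMSO before 4 h challenge with 50 pg/ml LPS, at 5,000 cells/well.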

Assay [2] deals with T1, human Cot catalytic domain (30-397 amino acids) (Homo sapiens, UniProt P41279).
T1 construct: Purified recombinant human Cot catalytic domain (30-397 amino acids) was purchased from Cama Biosciences; purchased Cama Biosciences (so in the source)
T1 sequence (P41279 30-397): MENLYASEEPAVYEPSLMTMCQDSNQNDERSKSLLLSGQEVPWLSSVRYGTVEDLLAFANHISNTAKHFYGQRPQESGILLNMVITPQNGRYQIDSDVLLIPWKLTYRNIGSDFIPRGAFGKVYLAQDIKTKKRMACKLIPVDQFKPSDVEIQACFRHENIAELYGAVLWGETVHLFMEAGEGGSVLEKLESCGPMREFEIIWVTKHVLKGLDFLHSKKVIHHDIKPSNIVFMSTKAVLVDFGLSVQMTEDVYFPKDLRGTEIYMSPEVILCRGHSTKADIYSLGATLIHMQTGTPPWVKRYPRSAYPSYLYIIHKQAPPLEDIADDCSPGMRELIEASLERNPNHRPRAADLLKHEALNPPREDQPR
Kind of assay: High Throughput Cot Biochemical Assay (KinEASE TR-FRET). The note with it: read-out: IC50 HTRF. In short, it runs like this: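 TR-FRET (KinEASE) read-out: Eu-labelled phospho-specific antibody binds XL665-tagged STK3 peptide (1 μM) phosphorylated by 5 nM human Cot kinase domain (residues 30-397). Reaction at 400 μM ATP, pH 7.0 MOPS buffer with 10 mM MgOAc, 1 mM DTT and 0.1% DMSO.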

Setting [3] is: Cot KinEASE TR-FRET (HTRF) biochemical assay, 400 μM ATP.
The mark [4] stands for this setting: Cot biochemical HTRF (KinEASE TR-FRET) assay.

The values below come from patent US10316017B2, “COT modulators and methods of use thereof” (Gilead Sciences, Inc., priority 2015, dated 2019).

Read-outs that look alike come from different tables or passages of the source. A value given as a limit tells only on which side of the number the result lay.

For the molecule `[2H][C@](Nc1cc(C)c2ncc(C#N)c(NCC(C)(C)C)c2c1)(c1ccc(F)cc1)c1cn(C2CC2)nn1` [Example 194, (S)-6-(((1-cyclopropyl-1H-1,2,3-triazol-4-yl)(4-fluorophenyl)methyl-d)amino)-8-methyl-4-(neopentylamino) quinoline-3-carbonitrile], the EC50 (as a rule, the concentration needed to bring the measured effect to its halfway point) in assay [1] stood at 2420 nM. For the same molecule, the IC50 (usually the concentration at which inhibition is half-maximal) in assay [2] (setting [3]) was 286 nM.

In the case of `N#Cc1cnc2c(Cl)cc(N[C@@H](c3ccccc3)c3cn([C@@H]4CCNC[C@H]4O)nn3)cc2c1Nc1ccc(F)c(Cl)c1` [Example 515, 8-chloro-4-((3-chloro-4-fluorophenyl)amino)-6-(((S)-(1-((3R,4R)-3-hydroxypiperidin-4-yl)-1H-1,2,3-triazol-4-yl)(phenyl)methyl)amino) quinoline-3-carbonitrile], the half-maximal effective concentration (EC50) in assay [1] stood at 324 nM. In addition, in assay [2] (setting [4]), the IC50 was 1 nM.

For `CC(C)(C)N1CCC(n2cc([C@@H](Nc3cc(Cl)c4ncc(C#N)c(NC56CC7CC(CC(C7)C5)C6)c4c3)c3ccccc3)nn2)CC1` [Example 637, 4-(((3R,5R,7R)-adamantan-1-yl)amino)-6-(((S)-(1-(1-(tert-butyl)piperidin-4-yl)-1H-1,2,3-triazol-4-yl)(phenyl)methyl)amino)-8-chloroquinoline-3-carbonitrile], the EC50 in assay [1] turned out to be 1280 nM. In addition, the IC50 in assay [2] (setting [4]) came out at 36 nM.

`CC(C)(C)N1CCC(n2cc([C@@H](Nc3cc(Cl)c4ncc(C#N)c(Nc5ccc(F)c(Cl)c5)c4c3)c3cccc(N4CCCCC4=O)c3)nn2)CC1` [Example 548, (S)-6-(((1-(1-(tert-butyl)piperidin-4-yl)-1H-1,2,3-triazol-4-yl)(3-(2-oxopiperidin-1-yl)phenyl)methyl)amino)-8-chloro-4-((3-chloro-4-fluorophenyl)amino)quinoline-3-carbonitrile]: the EC50 in assay [1] was determined as 40 nM. Besides, the IC50 in assay [2] (setting [4]) was found to be 1 nM.

As to `COCCOCCn1cc([C@@H](Nc2cc(Cl)c3ncc(C#N)c(Nc4ccc(F)c(F)c4)c3c2)c2ccc(Cl)cc2)nn1` [Example 724, (S)-8-chloro-6-(((4-chlorophenyl)(1-(2-(2-methoxyethoxy)ethyl)-1H-1,2,3-triazol-4-yl)methyl)amino)-4-((3,4-difluorophenyl)amino) quinoline-3-carbonitrile], in assay [1], the EC50 amounted to 1400 nM. The IC50 in assay [2] (setting [4]) stood at 87 nM.

In the case of `[2H][C@](Nc1cc(Cl)c2ncc(C#N)c(N[C@H](CC)c3ccccc3)c2c1)(c1cccc(C#N)c1)c1cn(C(C)(C)C)nn1` [Example 252, 6-(((S)-(1-(tert-butyl)-1H-1,2,3-triazol-4-yl)(3-cyanophenyl)methyl-d)amino)-8-chloro-4-(((R)-1-phenylpropyl)amino)quinoline-3-carbonitrile], the EC50 in assay [1] stood at 80 nM. Also, the concentration for half-maximal inhibition (IC50) in assay [2] (setting [3]) came to 5 nM.

For the molecule `CC(C)(C)N1CCC(n2cc([C@@H](Nc3cc(Cl)c4ncc(C#N)c(Nc5ccc(O)c(Cl)c5)c4c3)c3ccc(Cl)cc3)nn2)CC1` [Example 701, (S)-6-(((1-(1-(tert-butyl)piperidin-4-yl)-1H-1,2,3-triazol-4-yl)(4-chlorophenyl)methyl)amino)-8-chloro-4-((3-chloro-4-hydroxyphenyl)amino) quinoline-3-carbonitrile], the EC50 in assay [1] is 795 nM. Further, the IC50 in assay [2] (setting [4]) amounted to 48 nM.

As for `N#Cc1cnc2c(Cl)cc(N[C@@H](c3ccc(Cl)cc3)c3cn(C4CCN(C5COC5)CC4)nn3)cc2c1Nc1ccc(O)c(Cl)c1` [Example 700, (S)-8-chloro-4-((3-chloro-4-hydroxyphenyl)amino)-6-(((4-chlorophenyl)(1-(1-(oxetan-3-yl)piperidin-4-yl)-1H-1,2,3-triazol-4-yl)methyl)amino) quinoline-3-carbonitrile], the EC50 in assay [1] was determined as 2240 nM. In assay [2] (setting [4]), the IC50 worked out at 444 nM.

With `CN(C)Cc1cccc([C@H](Nc2cc(Cl)c3ncc(C#N)c(Nc4ccc(F)c(Cl)c4)c3c2)c2cn(C3CCN(C(C)(C)C)CC3)nn2)c1` [Compound 18], the EC50 in assay [1] is 1220 nM. In addition, the IC50 in assay [2] (setting [3]) turned out to be 7 nM.

Turning to `[2H][C@](Nc1cc(Cl)c2ncc(C#N)c(NC3CCOC(C)(C)C3)c2c1)(c1ccc(F)cc1)c1cn(C2CC2)nn1` (stereo partly drawn) [Example 64, 8-chloro-6-(((S)-(1-cyclopropyl-1H-1,2,3-triazol-4-yl)(4-fluorophenyl)methyl-d)amino)-4-((2,2-dimethyltetrahydro-2H-pyran-4-yl)amino) quinoline-3-carbonitrile], the half-maximal effective concentration (EC50) in assay [1] was above 1000 nM. The IC50 in assay [2] (setting [3]) was 106 nM.

For the molecule `[2H][C@](Nc1cc(Cl)c2ncc(C#N)c(N[C@H](CC)c3cccc(C)c3)c2c1)(c1ccc(F)cc1)c1cn(C2CC2)nn1` [Example 281, 8-chloro-6-(((S)-(1-cyclopropyl-1H-1,2,3-triazol-4-yl)(4-fluorophenyl)methyl-d)amino)-4-(((R)-1-(m-tolyl)propyl)amino)quinoline-3-carbonitrile], the EC50 in assay [1] amounted to 1040 nM. Also, the concentration for half-maximal inhibition (IC50) in assay [2] (setting [3]) is 68 nM.

As to `[2H][C@](Nc1cc(Cl)c2ncc(C#N)c(NN3CCCC3)c2c1)(c1ccc(F)cc1)c1cn(C2CC2)nn1` [Example 179, (S)-8-chloro-6-(((1-cyclopropyl-1H-1,2,3-triazol-4-yl)(4-fluorophenyl)methyl-d)amino)-4-(pyrrolidin-1-ylamino)quinoline-3-carbonitrile], in assay [1], the concentration giving a half-maximal response (EC50) is 2310 nM. Also, in assay [2] (setting [3]), the IC50 worked out at 193 nM.

For `[2H][C@](Nc1cc(-c2ccccc2)c2ncc(C#N)c(NCC(C)(C)C)c2c1)(c1ccc(F)cc1)c1cn(C2CC2)nn1` [Example 171, (S)-6-(((1-cyclopropyl-1H-1,2,3-triazol-4-yl)(4-fluorophenyl)methyl-d)amino)-4-(neopentylamino)-8-phenylquinoline-3-carbonitrile], the EC50 in assay [1] was above 10000 nM. Besides, the IC50 in assay [2] (setting [3]) was found to be 9530 nM.

On to `N#Cc1cnc2c(Cl)cc(N[C@@H](c3ccc(F)cc3)c3c[nH]nn3)cc2c1Nc1ccc(F)cc1F` [Example 367, (S)-8-chloro-4-((2,4-difluorophenyl)amino)-6-(((4-fluorophenyl)(1H-1,2,3-triazol-4-yl)methyl)amino)quinoline-3-carbonitrile], for which, in assay [1], the EC50 worked out at 3850 nM. Further, the IC50 in assay [2] (setting [3]) was 297 nM.

As for `[2H][C@](Nc1cc(Cl)c2ncc(C#N)c(N[C@H](CCN3CCCCC3)c3ccccc3)c2c1)(c1ccc(F)cc1)c1cn(C2CC2)nn1` [Example 166, 8-chloro-6-(((1-cyclopropyl-1H-1,2,3-triazol-4-yl)(4-fluorophenyl)methyl-d)amino)-4-(((R)-1-phenyl-3-(piperidin-1-yl)propyl)amino)quinoline-3-carbonitrile], the EC50 in assay [1] was found to be 979 nM. Further, the IC50 in assay [2] (setting [3]) turned out to be 61 nM.

Regarding `CN(C)Cc1ccc(Nc2c(C#N)cnc3c(Cl)cc(N[C@@H](c4ccc(Cl)cc4)c4cn(C5CCN(C(C)(C)C)CC5)nn4)cc23)cc1` [Example 684, (S)-6-(((1-(1-(tert-butyl)piperidin-4-yl)-1H-1,2,3-triazol-4-yl)(4-chlorophenyl)methyl)amino)-8-chloro-4-((4-((dimethylamino)methyl)phenyl)amino)quinoline-3-carbonitrile], the EC50 in assay [1] was determined as 6040 nM. For the same molecule, the IC50 in assay [2] (setting [4]) turned out to be 7350 nM.

Turning to `CC(C)(C)N1CCC(n2cc([C@@H](Nc3cc(Cl)c4ncc(C#N)c(Nc5ccsc5Cl)c4c3)c3ccccc3)nn2)CC1` [Example 611, (S)-6-(((1-(1-(tert-butyl)piperidin-4-yl)-1H-1,2,3-triazol-4-yl)(phenyl)methyl)amino)-8-chloro-4-((2-chlorothiophen-3-yl)amino)quinoline-3-carbonitrile], the EC50 in assay [1] came out at 369 nM. In addition, the concentration for half-maximal inhibition (IC50) in assay [2] (setting [4]) came to 51 nM.

Take `CC(C)(C)N1CCC(n2cc([C@@H](Nc3cc(Cl)c4ncc(C#N)c(N)c4c3)c3ccccc3)nn2)CC1` [Example 504, (S)-4-amino-6-(((1-(1-(tert-butyl)piperidin-4-yl)-1H-1,2,3-triazol-4-yl)(phenyl)methyl)amino)-8-chloroquinoline-3-carbonitrile]: the 50% effective concentration (EC50) in assay [1] came to 8510 nM. Besides, in assay [2] (setting [4]), the IC50 came to 1780 nM.

In the case of `[2H][C@](Nc1cc(Br)c2ncc(C#N)c(N[C@H](CC)c3ccccc3)c2c1)(c1ccc(F)cc1)c1cn(C2CC2)nn1` [Example 288, 8-bromo-6-(((S)-(1-cyclopropyl-1H-1,2,3-triazol-4-yl)(4-fluorophenyl)methyl-d)amino)-4-(((R)-1-phenylpropyl)amino)quinoline-3-carbonitrile], in assay [1], the EC50 was found to be 130 nM. For the same molecule, in assay [2] (setting [3]), the IC50 worked out at 6 nM.

In the case of `N#Cc1cnc2c(Cl)cc(N[C@@H](c3ccc(F)cc3)c3c[nH]nn3)cc2c1NCC1COC1` [Example 421, (S)-8-chloro-6-(((4-fluorophenyl)(1H-1,2,3-triazol-4-yl)methyl)amino)-4-((oxetan-3-ylmethyl)amino)quinoline-3-carbonitrile], in assay [1], the EC50 was above 10000 nM. The IC50 in assay [2] (setting [4]) was found to be 1490 nM.

As for `[2H]C(Nc1cc(Cl)c2ncc(C#N)c(NCC(C)(C)C)c2c1)(c1cn(C2(C(F)(F)F)CC2)nn1)c1ccccc1Cl` (stereo not drawn) [Example 106, 8-chloro-6-(((2-chlorophenyl) (1-(1-(trifluoromethyl)cyclopropyl)-1H-1,2,3-triazol-4-yl)methyl-d)amino)-4-(neopentylamino) quinoline-3-carbonitrile], the EC50 in assay [1] came out at 826 nM. Besides, the concentration for half-maximal inhibition (IC50) in assay [2] (setting [3]) came out at 58 nM.
